Experimental data from the supplement of paper PMC10307832.

Experiments:
Experiment in all cases: relative viability (nuclei count vs DMSO), 5 days (fraction); higher = more cells survive
NCI-H1299 = system: NCI-H1299
Summary of the method: (§1)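 Lung cancer cell lines in 1536-well plates got either a single drug or a fixed anchor-drug dose together with five library-drug doses (not always all listed) in √10 steps, by pin tool, on the day after seeding. Nuclei were counted after 5 days, and relative viability is the treated-to-vehicle ratio of nuclei counts. Values are medians of duplicate plates.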

NCI-H2009 = system: NCI-H2009
Summary of the method: as §1

NCI-H1703 = system: NCI-H1703
Summary of the method: as §1

EBC-1 = system: EBC-1
Summary of the method: as §1

Calu-6 = system: Calu-6
Summary of the method: as §1

A549 = system: A549
Summary of the method: as §1

NCI-H661 = system: NCI-H661
Summary of the method: as §1

NCI-H460 = system: NCI-H460
Summary of the method: as §1

IA-LM = system: IA-LM
Summary of the method: as §1

CC1(C)CCC(c2ccc(Cl)cc2)=C(CN2CCN(c3ccc(C(=O)NS(=O)(=O)c4ccc(N[C@H](CCN5CCOCC5)CSc5ccccc5)c(S(=O)(=O)C(F)(F)F)c4)cc3)CC2)C1 [Navitoclax] + C[C@]1(O)C[C@@H](c2nc(-c3ccc4ccc(-c5ccccc5)nc4c3)c3c(N)nccn32)C1 [Linsitinib] (partner 1 µM)
relative viability (NCI-H1299; first compound 0.005 µM): 0.949
relative viability (NCI-H1299; first compound 0.01581 µM): 1
relative viability (NCI-H1299; first compound 0.05 µM): 0.878
relative viability (NCI-H1299; first compound 0.1581 µM): 0.981
relative viability (NCI-H1299; first compound 0.5 µM): 0.984
relative viability (NCI-H2009; first compound 0.005 µM): 1.08
relative viability (NCI-H2009; first compound 0.01581 µM): 1.25
relative viability (NCI-H2009; first compound 0.05 µM): 1.16
relative viability (NCI-H2009; first compound 0.1581 µM): 1.18
relative viability (NCI-H2009; first compound 0.5 µM): 1.31
relative viability (NCI-H1703; first compound 0.005 µM): 0.935
relative viability (NCI-H1703; first compound 0.01581 µM): 1
relative viability (NCI-H1703; first compound 0.05 µM): 1.19
relative viability (NCI-H1703; first compound 0.1581 µM): 1
relative viability (NCI-H1703; first compound 0.5 µM): 0.813
relative viability (EBC-1; first compound 0.005 µM): 0.893
relative viability (EBC-1; first compound 0.01581 µM): 1.09
relative viability (EBC-1; first compound 0.05 µM): 0.974
relative viability (EBC-1; first compound 0.1581 µM): 1.05
relative viability (EBC-1; first compound 0.5 µM): 0.86
relative viability (Calu-6; first compound 0.005 µM): 0.927
relative viability (Calu-6; first compound 0.01581 µM): 0.984
relative viability (Calu-6; first compound 0.05 µM): 0.965
relative viability (Calu-6; first compound 0.1581 µM): 0.903
relative viability (Calu-6; first compound 0.5 µM): 0.918
relative viability (A549; first compound 0.005 µM): 0.681
relative viability (A549; first compound 0.01581 µM): 0.669
relative viability (A549; first compound 0.05 µM): 0.511
relative viability (A549; first compound 0.1581 µM): 0.558
relative viability (A549; first compound 0.5 µM): 0.591
relative viability (NCI-H661; first compound 0.005 µM): 0.524
relative viability (NCI-H661; first compound 0.01581 µM): 0.601
relative viability (NCI-H661; first compound 0.05 µM): 0.575
relative viability (NCI-H661; first compound 0.1581 µM): 0.552
relative viability (NCI-H661; first compound 0.5 µM): 0.5
relative viability (NCI-H460; first compound 0.005 µM): 0.77
relative viability (NCI-H460; first compound 0.01581 µM): 0.825
relative viability (NCI-H460; first compound 0.05 µM): 0.919
relative viability (NCI-H460; first compound 0.1581 µM): 0.896
relative viability (NCI-H460; first compound 0.5 µM): 0.744
relative viability (IA-LM; first compound 0.005 µM): 0.551
relative viability (IA-LM; first compound 0.01581 µM): 0.793
relative viability (IA-LM; first compound 0.05 µM): 0.537
relative viability (IA-LM; first compound 0.1581 µM): 0.587
relative viability (IA-LM; first compound 0.5 µM): 0.654

O=C(O)c1ccc(-c2c[nH]c3ncc(-c4ccccc4)cc23)cc1C1CCCC1 + CC1(C)CCC(c2ccc(Cl)cc2)=C(CN2CCN(c3ccc(C(=O)NS(=O)(=O)c4ccc(N[C@H](CCN5CCOCC5)CSc5ccccc5)c(S(=O)(=O)C(F)(F)F)c4)cc3)CC2)C1 [Navitoclax] (partner 0.5 µM)
relative viability (NCI-H1299; first compound 0.04 µM): 1.07
relative viability (NCI-H1299; first compound 0.1265 µM): 1.08
relative viability (NCI-H1299; first compound 0.4 µM): 1.02
relative viability (NCI-H1299; first compound 1.265 µM): 0.942
relative viability (NCI-H2009; first compound 0.04 µM): 1.15
relative viability (NCI-H2009; first compound 0.1265 µM): 1.1
relative viability (NCI-H2009; first compound 0.4 µM): 1.15
relative viability (NCI-H2009; first compound 1.265 µM): 0.969
relative viability (NCI-H1703; first compound 0.1265 µM): 1.11
relative viability (NCI-H1703; first compound 0.4 µM): 1.03
relative viability (NCI-H1703; first compound 1.265 µM): 1.11
relative viability (EBC-1; first compound 0.04 µM): 0.475
relative viability (EBC-1; first compound 0.1265 µM): 0.404
relative viability (EBC-1; first compound 0.4 µM): 0.352
relative viability (EBC-1; first compound 1.265 µM): 0.279
relative viability (Calu-6; first compound 0.04 µM): 0.821
relative viability (Calu-6; first compound 0.1265 µM): 0.732
relative viability (Calu-6; first compound 0.4 µM): 0.719
relative viability (Calu-6; first compound 1.265 µM): 0.55
relative viability (A549; first compound 0.04 µM): 1.09
relative viability (A549; first compound 0.1265 µM): 1.24
relative viability (A549; first compound 0.4 µM): 1.17
relative viability (A549; first compound 1.265 µM): 0.939
relative viability (NCI-H460; first compound 0.04 µM): 1.08
relative viability (NCI-H460; first compound 0.1265 µM): 1.18
relative viability (NCI-H460; first compound 0.4 µM): 1.14
relative viability (NCI-H460; first compound 1.265 µM): 0.962
relative viability (IA-LM; first compound 0.04 µM): 0.925
relative viability (IA-LM; first compound 0.1265 µM): 0.829
relative viability (IA-LM; first compound 0.4 µM): 0.89
relative viability (IA-LM; first compound 1.265 µM): 0.576

C=C1C(=O)O[C@@H](CCCCCCCC)[C@@H]1C(=O)O [C-75] + CC(C)C[C@H](NC(=O)[C@H](Cc1ccccc1)NC(=O)c1cnccn1)B(O)O [Bortezomib] (partner 0.002 µM)
relative viability (NCI-H1299; first compound 0.08 µM): 1.07
relative viability (NCI-H1299; first compound 0.253 µM): 0.932
relative viability (NCI-H1299; first compound 0.8 µM): 1.01
relative viability (NCI-H1299; first compound 2.53 µM): 1.02
relative viability (NCI-H1299; first compound 8 µM): 1.07
relative viability (NCI-H2009; first compound 0.08 µM): 1.03
relative viability (NCI-H2009; first compound 0.253 µM): 1.06
relative viability (NCI-H2009; first compound 0.8 µM): 0.927
relative viability (NCI-H2009; first compound 2.53 µM): 0.826
relative viability (NCI-H2009; first compound 8 µM): 0.866
relative viability (NCI-H1703; first compound 0.08 µM): 0.506
relative viability (NCI-H1703; first compound 0.253 µM): 0.435
relative viability (NCI-H1703; first compound 0.8 µM): 0.31
relative viability (NCI-H1703; first compound 2.53 µM): 0.292
relative viability (NCI-H1703; first compound 8 µM): 0.192
relative viability (EBC-1; first compound 0.08 µM): 0.57
relative viability (EBC-1; first compound 0.253 µM): 0.512
relative viability (EBC-1; first compound 0.8 µM): 0.498
relative viability (EBC-1; first compound 2.53 µM): 0.505
relative viability (EBC-1; first compound 8 µM): 0.221
relative viability (Calu-6; first compound 0.08 µM): 1.01
relative viability (Calu-6; first compound 0.253 µM): 1.16
relative viability (Calu-6; first compound 0.8 µM): 1.02
relative viability (Calu-6; first compound 2.53 µM): 0.92
relative viability (Calu-6; first compound 8 µM): 0.855
relative viability (NCI-H661; first compound 0.08 µM): 0.696
relative viability (NCI-H661; first compound 0.253 µM): 0.873
relative viability (NCI-H661; first compound 0.8 µM): 0.731
relative viability (NCI-H661; first compound 2.53 µM): 0.973
relative viability (NCI-H661; first compound 8 µM): 0.655
relative viability (NCI-H460; first compound 0.08 µM): 1.05
relative viability (NCI-H460; first compound 0.253 µM): 1.22
relative viability (NCI-H460; first compound 0.8 µM): 0.982
relative viability (NCI-H460; first compound 8 µM): 0.945
relative viability (IA-LM; first compound 0.08 µM): 0.79
relative viability (IA-LM; first compound 0.253 µM): 0.61
relative viability (IA-LM; first compound 0.8 µM): 0.728
relative viability (IA-LM; first compound 2.53 µM): 0.736
relative viability (IA-LM; first compound 8 µM): 0.428
